Source: publication PMC6651387, “Fine-Tuning the Activation Mode of an 1,3-Indandione-Based Ruthenium(II)-Cymene Half-Sandwich Complex by Variation of Its Leaving Group” (Molecules, 2019)
“And” between values parts separate entries of the source, which are not always exact repeats. Equal entries are not always repeated.

How the values were obtained:
[1] = Solubility in minimal essential medium (MEM, 1% DMSO)
Protocol: Melting points were determined with a Büchi Melting Point M-560. The solubility was determined by dissolving the compound in DMSO and subsequent dilution to a final concentration of 1% DMSO/MEM solution (minimal essential medium) and 1% DMSO/MSP solution (medium with serum proteins). The highest concentrated dilution, where no precipitation of the compound occurred, was the determined solubility. The NMR spectra were recorded at 25 °C using a Bruker FT-NMR spectrometer Avance III^TM 500 MHz. ^1H-NMR spectra were measured at 500.10 MHz and ^13C-NMR spectra were recorded at 125.75 MHz in deuterated methanol (CD3OD). 2D-NMR spectra were measured using a gradient-enhanced mode. CHN elemental analyses were performed with a Eurovector EA3000 Elemental Analyzer in the microanalytical laboratory of the University of Vienna. Single crystals of complexes 1b–1f suitable for X-ray diffraction analysis were grown by precipitation from DCM/Et2O at 4 °C. The X-ray intensity data were measured on Bruker D8 Venture or X8 APEX II diffractometer equipped with multilayer monochromators, Mo K/α INCOATEC microfocus sealed tubes and Kryoflex cooling devices (Bruker, Karlsruhe, Germany). The structures were solved by direct methods and refined by full-matrix least-squares techniques. Non-hydrogen atoms were refined with anisotropic displacement parameters. Hydrogen atoms were inserted at calculated positions and refined with a riding model separately as rotating groups. The following software was used: Bruker SAINT software package using a narrow-frame algorithm for frame integration, SADABS [33] for absorption correction, OLEX2 [34] for structure solution, refinement, molecular diagrams and graphical user-interface, Shelxle for refinement and graphical user-interface, SHELXS-2013 [36] for structure solution, SHELXL-2013 [37] for refinement, and Platon for symmetry check. Electronspray ionization mass spectra were recorded on a Bruker AmaZon SL ion trap mass spectrometer (Bruker Daltonics GmbH, Hamburg, Germany).

[2] = test system: SW480 cells; assay: Cellular accumulation by ICP-MS quantification of ruthenium (or platinum); assay type: cell-based, human; details: 50 µM; for cellular accumulation, fg Ru or Pt/Cell: exposure time 2 h, ICP-MS of ruthenium; for cellular ruthenium values: ICP-MS
Protocol: Ruthenium accumulation was measured by means of inductively coupled plasma mass spectrometry (ICP-MS) upon 2 h exposure of SW480 cells to 50 µM of each compound.
Cellular accumulation of the compounds was studied based on a previously described method with modifications as follows: SW480 cells with a number of 1.8 × 10^5 per well were seeded into 12-well plates in aliquots of 1 mL complete MEM and incubated at 37 °C for 24 h. Then, cells were exposed for 2 h at 37 °C to 50 μM solutions of the test compounds (containing 0.5% DMSO) in 500 µL of fresh complete MEM upon exchange of the medium. Afterwards, cells were washed three times with PBS, and lyzed with 0.4 mL sub-boiled HNO3 per well for 1 h at room temperature. Ruthenium content was quantified by ICP-MS using an Agilent 7500ce quadrupole ICP-MS instrument (Agilent Technologies, Waldbronn, Germany) equipped with a CETAC ASX-520 autosampler (Nebraska, USA) and a MicroMist nebulizer. Ruthenium and indium standards were obtained from CPI International (Amsterdam, The Netherlands). The instrument was equipped with nickel cones and operated at an RF power of 1560 W, with argon as the plasma gas (15 L/min), carrier gas (1.0–1.1 L/min) and make-up gas (0.1–0.2 L/min). The Agilent MassHunter software package (Workstation Software, Version B.01.01, Build 123.11, Patch 4, 2012) was used for data processing. Results are based on at least three independent experiments, each comprising triplicate samples. The instrument was tuned on a daily basis for maximum sensitivity and doubly charged species as well as oxide rates were <5%.

[3] = pH-dependent stability by UV-VIS spectroscopy; assay type: physicochemical; details: for precipitation at pH 7.4: 40 µM, PBS, 1% DMSO, loss of absorbance without change in spectrum
Source text: The stability under physiological conditions is a vital part of the process of developing a new drug. Additionally, N-donor leaving groups equip piano-stool complexes with an elegant pH-switch. Theoretically, they can be protonated at lower pH values, as found in the extracellular matrix of the tumor tissue, and are therefore cleaved off. The resulting aqua complex is highly reactive and able to interact with biological targets. To put this theory to the test, the stability of complexes 1a–g was investigated at different pH values, i.e., 5.5, 6.5, 7.4, and 8.5. Spectra were recorded over a period of 24 h, with 40 µM solutions (1% DMSO in water) in the range of 250–700 nm. The chosen pH values represented the physiologically relevant conditions; a pH value of 8.5 is the highest pH found in the human body (in the duodenum), a pH value of 7.4 is the average pH of human blood, and a pH value of 6.5 is the pH found in the extracellular matrix of solid tumors.
Stability measurements were performed on a Lambda 35 UV/VIS spectrometer (Perkin Elmer, Boston, MA, USA). Samples of complexes 1a–g: 40 µM in PBS (pH 7.4) and isotonic saline phosphate buffer with 0.9% sodium chloride (pH 8.5), diluted isotonic acetic acid (pH 5.5), and acetate buffer (pH 6.5) with 1% DMSO. UV-VIS spectra were recorded hourly for 24 h at 37 °C. Temperature control was maintained by a PTP-6 Peltier System (Perkin Elmer, Boston, MA, USA).

| Structure (SMILES) | solubility [1] | cellular accumulation, fg Ru or Pt/Cell [2] | cellular ruthenium values ([2]; 2 h) | precipitation at pH 7.4 [3] | cellular ruthenium accumulation relative to complex 1d ([2]; 2 h) | hydrolysis in aqueous systems ([3]; aquation to the aqua complex) |
| --- | --- | --- | --- | --- | --- | --- |
| Cc1ccc(C(C)C)cc1.F[P-](F)(F)(F)(F)F.O=C1C2=C(NCc3ccccc3)[O][Ru-]([n+]3ccc[nH]3)[O+]=C2c2ccccc21 [1c] | 0.28 mg/mL and 0.39 mM | 67 ± 27 fg Ru or Pt/Cell | – | – | – | – |
| Cc1ccc(C(C)C)cc1.Cn1ccnc1.F[P-](F)(F)(F)(F)F.O=C1C(=C(NCc2ccccc2)[O][Ru+])C(=O)c2ccccc21 [1b] | 0.30 mg/mL and 0.40 mM | 97 ± 28 fg Ru or Pt/Cell | – | – | – | – |
| Cc1ccc(C(C)C)cc1.F[P-](F)(F)(F)(F)F.O=C1C2=C(NCc3ccccc3)[O][Ru-]([n+]3c[nH]c4ccccc43)[O+]=C2c2ccccc21 [1d] | 0.29 mg/mL and 0.37 mM | 405 ± 128 fg Ru or Pt/Cell | > 400 fg/cell | precipitated to some extent | – | – |
| Cc1ccc(C(C)C)cc1.O=C1C2=C(NCc3ccccc3)[O][Ru-]([Cl])[O+]=C2c2ccccc21 [1a] | – | 8.4 ± 2.8 fg Ru or Pt/Cell | < 10 fg/cell | – | almost fiftyfold lower | hydrolyzed quickly to the more reactive aqua complex |
| Cc1ccc(C(C)C)cc1.F[P-](F)(F)(F)(F)F.O=C1C2=C(NCc3ccccc3)[O][Ru-]([NH+]3CCOCC3)[O+]=C2c2ccccc21 [1g] | 0.22 mg/mL and 0.29 mM | 123 ± 32 fg Ru or Pt/Cell | – | – | – | – |
| Cc1ccc(C(C)C)cc1.F[P-](F)(F)(F)(F)F.O=C1C2=C(NCc3ccccc3)[O][Ru-]([n+]3cc4ccccc4[nH]3)[O+]=C2c2ccccc21 [1e] | 0.06 mg/mL and 0.08 mM | 114 ± 35 fg Ru or Pt/Cell | – | precipitated to some extent | – | – |
